Assay [1] has as its target T1, human JAK1 (a.a. 837-1142) catalytic domain (Homo sapiens, UniProt P23458).
T1 construct: human JAK1 (a.a. 837-1142); His tag (N); made in house; host or cells: insect cells (baculovirus)
Briefly: In vitro JAK kinase assay (HTRF, phosphorylation of biotinylated peptide), JAK1. It counts as biochemical. The settings on record: ATP 1 mM. The method, then:
Compounds herein were tested for inhibitory activity of JAK targets according to the following in vitro assay described in Park et al., Analytical Biochemistry 1999, 269, 94-104. The catalytic domains of human JAK1 (a.a. 837-1142) and JAK2 (a.a. 828-1132) with an N-terminal His tag were expressed using baculovirus in insect cells and purified. The catalytic activity of JAK1 and JAK2 was assayed by measuring the phosphorylation of a biotinylated peptide. The phosphorylated peptide was detected by homogenous time resolved fluorescence (HTRF). […] For the 1 mM IC50 measurements, ATP concentration in the reactions was 1 mM. Reactions were carried out at room temperature for 1 hour and then stopped with 20 μL 45 mM EDTA, 300 nM SA-APC, 6 nM Eu-Py20 in assay buffer (Perkin Elmer, Boston, Mass.). Binding to the Europium labeled antibody took place for 40 minutes and HTRF signal was measured on a Fusion plate reader (Perkin Elmer, Boston, Mass.). […] Data is indicated as ranges, wherein “+” is less than 5 nM; “++” is 5 nM to 25 nM; “+++” is greater than 25 nM to 100 nM; and “++++” is greater than 100 nM.
(In general: In TR-FRET formats the signal depends on donor and acceptor labels being close together.)

Assay [2] addresses T2, JAK2 (a.a. 828-1132) catalytic domain (Homo sapiens, UniProt O60674).
T2 construct: JAK2 (a.a. 828-1132); His tag (N); made in house; host or cells: insect cells (baculovirus)
Briefly: In vitro JAK kinase assay (HTRF, phosphorylation of biotinylated peptide), JAK2. It counts as biochemical. Conditions: ATP 1 mM. The method, then:
Compounds herein were tested for inhibitory activity of JAK targets according to the following in vitro assay described in Park et al., Analytical Biochemistry 1999, 269, 94-104. The catalytic domains of human JAK1 (a.a. 837-1142) and JAK2 (a.a. 828-1132) with an N-terminal His tag were expressed using baculovirus in insect cells and purified. The catalytic activity of JAK1 and JAK2 was assayed by measuring the phosphorylation of a biotinylated peptide. The phosphorylated peptide was detected by homogenous time resolved fluorescence (HTRF). […] For the 1 mM IC50 measurements, ATP concentration in the reactions was 1 mM. Reactions were carried out at room temperature for 1 hour and then stopped with 20 μL 45 mM EDTA, 300 nM SA-APC, 6 nM Eu-Py20 in assay buffer (Perkin Elmer, Boston, Mass.). Binding to the Europium labeled antibody took place for 40 minutes and HTRF signal was measured on a Fusion plate reader (Perkin Elmer, Boston, Mass.). See Tables A and B for data related to compounds of the invention (at 1 mM). Data is indicated as ranges, wherein “+” is less than 5 nM; “++” is 5 nM to 25 nM; “+++” is greater than 25 nM to 100 nM; and “++++” is greater than 100 nM.

The values below come from US9034884B2, “Heterocyclic-substituted pyrrolopyridines and pyrrolopyrimidines as JAK inhibitors” (Incyte Corporation, priority 2010, dated 2015).

T2 sequence (O60674 828-1132): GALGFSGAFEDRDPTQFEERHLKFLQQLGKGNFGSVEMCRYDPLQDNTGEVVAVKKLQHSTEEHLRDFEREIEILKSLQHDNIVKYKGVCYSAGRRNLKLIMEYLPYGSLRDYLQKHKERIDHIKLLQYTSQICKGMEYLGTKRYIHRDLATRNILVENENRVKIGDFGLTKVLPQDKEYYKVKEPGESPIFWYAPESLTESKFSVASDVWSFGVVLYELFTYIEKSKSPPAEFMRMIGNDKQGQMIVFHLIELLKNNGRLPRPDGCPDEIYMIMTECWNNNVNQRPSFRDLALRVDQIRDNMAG
T1 sequence (P23458 849-1154): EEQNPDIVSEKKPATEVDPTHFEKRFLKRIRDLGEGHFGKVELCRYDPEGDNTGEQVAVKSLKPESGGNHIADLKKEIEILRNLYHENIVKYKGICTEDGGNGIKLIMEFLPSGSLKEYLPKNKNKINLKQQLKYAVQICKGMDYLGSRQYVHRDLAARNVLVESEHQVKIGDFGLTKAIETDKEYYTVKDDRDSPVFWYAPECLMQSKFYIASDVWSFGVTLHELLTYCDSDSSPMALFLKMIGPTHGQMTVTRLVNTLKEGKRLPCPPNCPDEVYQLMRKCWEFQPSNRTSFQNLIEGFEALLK

As to `C[C@H]1CCCN1Cc1cc(F)cc(OC2CCN(CC(CC#N)n3cc(-c4ncnc5[nH]ccc45)cn3)CC2F)c1` (single isomer, unassigned) [Example 33 diastereomer 2], the values for the half-maximal inhibitory concentration (IC50) in assay [1] (Table B) and in assay [2] (Table B) were less than 5 nM and 25 to 100 nM, respectively.

For the compound `N#CCC(CN1CCC(Oc2cc(F)cc(CN3CCCCC3)c2)CC1)n1cc(-c2ncnc3[nH]ccc23)cn1` (stereo not drawn) [Example 25, 4-{4-[3-fluoro-5-(piperidin-1-ylmethyl)phenoxy]piperidin-1-yl}-3-[4-(7H-pyrrolo[2,3-d]pyrimidin-4-yl)-1H-pyrazol-1-yl]butanenitrile], the IC50 (usually the concentration that inhibits the measured activity by half) in assay [1] (Table A) was less than 5 nM; in assay [2] (Table A), 5 to 25 nM.

On to `N#CCC(CN1CCC(Oc2cc(F)cc(F)c2F)CC1)n1cc(-c2ncnc3[nH]ccc23)cn1` (stereo not drawn) [Example 5, 3-[4-(7H-Pyrrolo[2,3-d]pyrimidin-4-yl)-1H-pyrazol-1-yl]-4-[4-(2,3,5-trifluorophenoxy)piperidin-1-yl]butanenitrile tris(trifluoroacetate)], for which the IC50 in assay [1] (Table A) is less than 5 nM; in assay [2] (Table A), 5 to 25 nM.

Turning to `N#CCC(CN1CCC(Oc2cc(F)cc(C(F)(F)F)c2)CC1)n1cc(-c2ncnc3[nH]ccc23)cn1` (stereo not drawn) [Example 3, 4-{4-[3-Fluoro-5-(trifluoromethyl)phenoxy]piperidin-1-yl}-3-[4-(7H-pyrrolo[2,3-d]pyrimidin-4-yl)-1H-pyrazol-1-yl]butanenitrile tris(trifluoroacetate)], the IC50 in assay [1] (Table A) is 5 to 25 nM; in assay [2] (Table A), greater than 100 nM.

In the case of `N#CCC(CN1CCC(Oc2cc(F)cc(CNC3CCC3)c2)CC1)n1cc(-c2ncnc3[nH]ccc23)cn1` (stereo not drawn) [Example 23, 4-(4-{3-[(cyclobutylamino)methyl]-5-fluorophenoxy}piperidin-1-yl)-3-[4-(7H-pyrrolo[2,3-d]pyrimidin-4-yl)-1H-pyrazol-1-yl]butanenitrile tetrakis(trifluoroacetate)], the values for the half-inhibitory concentration (IC50) in assay [1] (Table A) and in assay [2] (Table A) were 5 to 25 nM and 25 to 100 nM, respectively.

On to `COCCNCc1cc(F)cc(OC2CCN(CC(CC#N)n3cc(-c4ncnc5[nH]ccc45)cn3)CC2)c1` (stereo not drawn) [Example 30, 4-[4-(3-fluoro-5-{[(2-methoxyethyl)amino]methyl}phenoxy)piperidin-1-yl]-3-[4-(7H-pyrrolo[2,3-d]pyrimidin-4-yl)-1H-pyrazol-1-yl]butanenitrile], for which the half-maximal inhibitory concentration (IC50) in assay [1] (Table A) lay in the range of 5 to 25 nM; in assay [2] (Table A) it was 25 to 100 nM.

As for `N#CCC(CN1CCC(Oc2cc(F)cc(C(=O)N3CCC(F)(F)C3)c2)CC1)n1cc(-c2ncnc3[nH]ccc23)cn1` (stereo not drawn) [Example 19, 4-(4-{3-[(3,3-Difluoropyrrolidin-1-yl)carbonyl]-5-fluorophenoxy}piperidin-1-yl)-3-[4-(7H-pyrrolo[2,3-d]pyrimidin-4-yl)-1H-pyrazol-1-yl]butanenitrile], the figures for the IC50 in assay [1] (Table A) and in assay [2] (Table A) were less than 5 nM and 5 to 25 nM, respectively.

As to `N#CCCNC(=O)c1cc(F)cc(OC2CCN(CC(CC#N)n3cc(-c4ncnc5[nH]ccc45)cn3)CC2)c1` (stereo not drawn) [Example 12, N-(2-Cyanoethyl)-3-[(1-{3-cyano-2-[4-(7H-pyrrolo[2,3-d]pyrimidin-4-yl)-1H-pyrazol-1-yl]propyl}piperidin-4-yl)oxy]-5-fluorobenzamide tris(trifluoroacetate)], the half-inhibitory concentration (IC50) in assay [1] (Table A) is less than 5 nM; in assay [2] (Table A), 5 to 25 nM.

With `CN(Cc1cc(F)cc(OC2CCN(CC(CC#N)n3cc(-c4ncnc5[nH]ccc45)cn3)CC2)c1)C1CC1` (stereo not drawn) [Example 21, 4-[4-(3-{[cyclopropyl(methyl)amino]methyl}-5-fluorophenoxy)piperidin-1-yl]-3-[4-(7H-pyrrolo[2,3-d]pyrimidin-4-yl)-1H-pyrazol-1-yl]butanenitrile], the results for the IC50 in assay [1] (Table A) and in assay [2] (Table A) were less than 5 nM and greater than 100 nM, respectively.

In the case of `CC(C)(C)NC(=O)c1cc(F)cc(OC2CCN(CC(CC#N)n3cc(-c4ncnc5[nH]ccc45)cn3)CC2)c1` (stereo not drawn) [Example 15, N-(tert-Butyl)-3-[(1-{3-cyano-2-[4-(7H-pyrrolo[2,3-d]pyrimidin-4-yl)-1H-pyrazol-1-yl]propyl}piperidin-4-yl)oxy]-5-fluorobenzamide tris(trifluoroacetate)], the concentration for half-maximal inhibition (IC50) in assay [1] (Table A) and in assay [2] (Table A) was less than 5 nM each time.

Regarding `CNC(=O)c1cc(F)cc(OC2CCN(CC(CC#N)n3cc(-c4ncnc5[nH]ccc45)cn3)CC2)c1` (stereo not drawn) [Example 7, 3-[(1-{3-Cyano-2-[4-(7H-pyrrolo[2,3-d]pyrimidin-4-yl)-1H-pyrazol-1-yl]propyl}piperidin-4-yl)oxy]-5-fluoro-N-methylbenzamide tris(trifluoroacetate)], the figures for the IC50 in assay [1] (Table A) and in assay [2] (Table A) were less than 5 nM and 5 to 25 nM, respectively.

As for `N#CCC(CN1CCC(Oc2cc(F)cc(C(=O)N3CCOCC3)c2)CC1)n1cc(-c2ncnc3[nH]ccc23)cn1` (stereo not drawn) [Example 18, 4-{4-[3-Fluoro-5-(morpholin-4-ylcarbonyl)phenoxy]piperidin-1-yl}-3-[4-(7H-pyrrolo[2,3-d]pyrimidin-4-yl)-1H-pyrazol-1-yl]butanenitrile], the values for the IC50 in assay [1] (Table A) and in assay [2] (Table A) were less than 5 nM and 5 to 25 nM, respectively.

As to `CCNC(=O)c1cc(F)cc(OC2CCN(CC(CC#N)n3cc(-c4ncnc5[nH]ccc45)cn3)CC2)c1` (stereo not drawn) [Example 9, 3-[(1-{3-Cyano-2-[4-(7H-pyrrolo[2,3-d]pyrimidin-4-yl)-1H-pyrazol-1-yl]propyl}piperidin-4-yl)oxy]-N-ethyl-5-fluorobenzamide], the figures for the concentration for half-maximal inhibition (IC50) in assay [1] (Table A) and in assay [2] (Table A) were less than 5 nM and 5 to 25 nM, respectively.

`N#CCC(CN1CCC(Oc2cc(F)cc(C(=O)NCCN3CCOCC3)c2)CC1)n1cc(-c2ncnc3[nH]ccc23)cn1` (stereo not drawn) [Example 16, 3-[(1-{3-Cyano-2-[4-(7H-pyrrolo[2,3-d]pyrimidin-4-yl)-1H-pyrazol-1-yl]propyl}piperidin-4-yl)oxy]-5-fluoro-N-(2-morpholin-4-ylethyl)benzamide tris(trifluoroacetate)]: the IC50 in assay [1] (Table A) is less than 5 nM; in assay [2] (Table A) it was 5 to 25 nM.

For `N#CCC(CN1CCC(Oc2cc(F)cc(CN3CCCC3)c2)CC1)n1cc(-c2ncnc3[nH]ccc23)cn1` (stereo not drawn) [Example 24, 4-{4-[3-fluoro-5-(pyrrolidin-1-ylmethyl)phenoxy]piperidin-1-yl}-3-[4-(7H-pyrrolo[2,3-d]pyrimidin-4-yl)-1H-pyrazol-1-yl]butanenitrile tetrakis(trifluoroacetate)], the 50% inhibitory concentration (IC50) in assay [1] (Table A) was less than 5 nM; in assay [2] (Table A) it was 25 to 100 nM.

Turning to `N#CCC(CN1CCC(Oc2cc(F)cc(C(=O)N3CCCC3)c2)CC1)n1cc(-c2ncnc3[nH]ccc23)cn1` (stereo not drawn) [Example 13, 4-{4-[3-Fluoro-5-(pyrrolidin-1-ylcarbonyl)phenoxy]piperidin-1-yl}-3-[4-(7H-pyrrolo[2,3-d]pyrimidin-4-yl)-1H-pyrazol-1-yl]butanenitrile tris(trifluoroacetate)], the IC50 in assay [1] (Table A) was less than 5 nM; in assay [2] (Table A) it was 5 to 25 nM.

As for `C[C@@H]1CCCN1Cc1cc(F)cc(OC2CCN(CC(CC#N)n3cc(-c4ncnc5[nH]ccc45)cn3)CC2)c1` (stereo partly drawn) [Example 28, 4-[4-(3-fluoro-5-{[(2R)-2-methylpyrrolidin-1-yl]methyl}phenoxy)piperidin-1-yl]-3-[4-(7H-pyrrolo[2,3-d]pyrimidin-4-yl)-1H-pyrazol-1-yl]butanenitrile], the IC50 in assay [1] (Table A) was less than 5 nM; in assay [2] (Table A), 25 to 100 nM.

`N#CCC(CN1CCC(Oc2cc(F)cc(C(=O)N3CCCCC3)c2)CC1)n1cc(-c2ncnc3[nH]ccc23)cn1` (stereo not drawn) [Example 17, 4-{4-[3-Fluoro-5-(piperidin-1-ylcarbonyl)phenoxy]piperidin-1-yl}-3-[4-(7H-pyrrolo[2,3-d]pyrimidin-4-yl)-1H-pyrazol-1-yl]butanenitrile]: the IC50 in assay [1] (Table A) was less than 5 nM; in assay [2] (Table A), 5 to 25 nM.

For the compound `CN(C)C(=O)c1cc(F)cc(OC2CCN(CC(CC#N)n3cc(-c4ncnc5[nH]ccc45)cn3)CC2)c1` (stereo not drawn) [Example 8, 3-[(1-{3-Cyano-2-[4-(7H-pyrrolo[2,3-d]pyrimidin-4-yl)-1H-pyrazol-1-yl]propyl}piperidin-4-yl)oxy]-5-fluoro-N,N-dimethylbenzamide tris(trifluoroacetate)], the 50% inhibitory concentration (IC50) in assay [1] (Table A) is less than 5 nM; in assay [2] (Table A), 5 to 25 nM.

`CN(C)Cc1cc(F)cc(OC2CCN(CC(CC#N)n3cc(-c4ncnc5[nH]ccc45)cn3)CC2)c1` (single isomer, unassigned) [Example 20 Enantiomer 2, 4-(4-{3-[(Dimethylamino)methyl]-5-fluorophenoxy}piperidin-1-yl)-3-[4-(7H-pyrrolo[2,3-d]pyrimidin-4-yl)-1H-pyrazol-1-yl]butanenitrile (chiral)] returned an IC50 in assay [2] (Table A) of 5 to 25 nM.
